One may read the IC50 as the concentration that gives 50% inhibition.

A short description of data set [1]: Electrophilic reactivity: reaction between BANA and β-mercaptoethanol followed by UV-Visible spectra. It counts as physicochemical. The settings on record: BANA 30 μM, β-ME 300 μM, phosphate buffer 20 mM pH=7.4, scans each min up to 15 min. Here is the method:
Most electrophilic nitroalkene compounds exert their pharmacological activity via a Michael addition reaction with nucleophiles. To study the electrophilic properties of BANA, the reaction between -mercaptoethanol (BME) and BANA was studied spectrophotometrically.
The electrophilic reactivity of BANA compound was determined by analyzing the UV-Visible spectra of the reaction between BANA and β-Mercaptoethanol (β-ME). BANA (30 μM) was incubated with β-ME (300 μM) in Phosphate buffer (20 mM) pH=7.4, and scans were taken each min up to 15 min.

A short description of data set [2]: Cell viability / toxicity by sulforhodamine B assay. The settings on record: mouse, BV2 microglial cells; BV2 cell culture; read-out: LC50. The data set is classed as cell-based. On the procedure:
(§1) The murine BV2 microglial cell line was used to analyze the toxicity and anti-inflammatory effects of BANA. Baseline cell viability was established in murine microglia cell line BV2 by sulforhodamine B assay. Briefly, cells were plated in a 96-multiwell plate and incubated with different concentrations of BANA (5-110 μM) for 24 h. After media removal, cells were washed twice with PBS pH=7.4. Cells were fixed with TCA for 1 hour at 4° C. and then washed five times with distilled water. 50 μL of sulforhodamine B 0.4% m/v in 1% acetic acid was added to each well and incubated 30 minutes at room temperature. After staining, the plate was washed at least five times with 1% acetic acid. Once the plate was dry the protein-bound dye was dissolved in 10 mM Tris and the absorbance at 570 nm was read using a microplate spectrophotometer (FIG. 3A).
(The SRB assay estimates cell density from bound dye.)

Data set [3] has as its system murine BV2 microglial cell line. The data set is described as above. It counts as cell-based. On the procedure:
as §1

Data set [4] can be described thus: LC50 in cell culture of HT-29. The settings on record: human, HT-29 cells; HT-29 cell culture. It counts as cell-based.
Another data set concerns NLRP3 inflammasome. Nature of the data set: Inflammasome activation in THP-1 cells (LPS and ATP), IL-1β ELISA. It counts as cell-based, Human. The settings on record: 30 μM, in first or second signal (LPS and ATP), compared with vehicle. On the procedure: The effect of BANA or BA over NF-κB-dependent gene expression was studied by qPCR using THP-1 cells. THP-1 cells were differentiated into macrophages and treated with BANA (30 μM) or BA (30 μM) for 2 hs, followed by stimulation with LPS (100 ng/mL, for 3-4 h).
For inflammasome activation, THP-1 cells were treated with LPS (as above) followed by exposure to ATP (5 mM, 45 min). IL-1β in the supernatant was then measured by ELISA (B&D OptEIA TM, San Diego, CA, USA).
Background: An ELISA detects its analyte on a solid surface through an enzyme-linked reagent.

The subject of a further data set is NF-κB. Nature of the data set: TNFα-induced NF-κB activation in HT-29 NF-κB reporter cell line (flow cytometry). The settings on record: BANA 10, 20, 30 μM, BA 30 μM, DMF 30 μM before TNFα. The data set is classed as cell-based. Here is the method:
The effects of BANA on LPS- or TNFα-induced NF-κB activation were also assayed in cell cultures of BV2 microglial cell line and primary adult microglia isolated from symptomatic SOD1^G93A rats, and HT-29 NF-κB reporter cell line, respectively.
In general terms: A flow cytometer gives signals particle by particle.

As for `O=C(O)c1ccc(/C=C/[N+](=O)[O-])cc1` [BANA, (E)-4-(2-nitrovinyl) benzoic acid], the “reaction with β-mercaptoethanol (UV-Visible absorbance)” value in data set [1] is reported as “react with 3-ME, resulting in a decreased in absorbance”. The CC50 at 24 h in data set [2] worked out at 50 µM. In data set [3] (Mus musculus, BV-2, BV2 cells, BANA 5-110 μM, 24 h, sulforhodamine B), this compound came in with an IC50 of 51.7 µM. Further, the “toxicity to BV2 microglia” value in data set [3] (low micromolar concentrations) is “devoid of toxicity”. In data set [4], this compound came in with a CC50 of 80 µM. In the data set on NLRP3 inflammasome, the “release of IL-1β” value is reported as “almost completely prevented”. For the same compound, the “TNFα-induced NF-κB activation” value in the data set on NF-κB is reported as “potently prevented”.

The values above are taken from US20260060947A1 (INSTITUT PASTEUR DE MONTEVIDEO, priority 2019, published 2026).
